Results: patent US20240239794A1, “PKC-Theta Modulators” (Exscientia AI Limited, priority 2021, published 2024)
Where a name gives a salt, the structure may show the parent alone. Read-outs that look alike come from different tables or passages of the source.

Key:
[1] = target: Recombinant human PKC-theta (His-tagged 362-706) (Homo sapiens (Human), UniProt Q04759); experiment: PKC-theta inhibition assay (HTRF KinEASE kit); type: biochemical; settings: ATP 6.5 μM
Summary of the method: (§1)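 Ten semi-log compound doses were fitted by 4-parameter logistic to HTRF acceptor/donor ratios for IC50. Reactions at 25° C used 6.5 μM ATP and 525 nM STK substrate for 30 min (PKC-theta) or 5.7 μM ATP and 243 nM substrate for 20 min (PKC-delta), after 30 min on-ice enzyme–compound preincubation at 10 ng/ml enzyme.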

[2] = test system: IL-2 secretion by human effector memory T cells (TEM); experiment: Effector memory T cells IL-2 release assay; type: cell-based; settings: T-cell, 24 h
Summary of the method: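 IC50 values come from a 4-parameter fit of HTRF-measured IL-2 against 10 semi-log doses, relative to maximal IL-2 in each experiment. Donor-derived CD4+ TEM cells were bead-stimulated (anti-CD3/CD28) with compound for 24 h at 37° C; cytotoxicity was excluded by viability dye staining.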

[3] = target: Recombinant human PKC-delta (His-tagged 345-676) (Homo sapiens (Human), UniProt Q05655); experiment: PKC-delta inhibition assay (HTRF KinEASE kit), PKC-theta/PKC-delta selectivity; type: biochemical; settings: ratio; for PKC-theta/PKC-delta selectivity: PKC-theta over PKC-delta, HTRF assays; for PKC-theta/PKC-delta selectivity (binned): binned A to G
Summary of the method: as §1

[4] = binned A to H, read-out: PKC-theta HTRF pIC50 (binned) (converted)
[5] = read-out: PKC-theta HTRF pIC50 (converted)
[6] = human CD4+ TEM cells, CD3/CD28 bead stimulation, binned A to G, read-out: PKC-theta IL2 pIC50 (binned) (converted)
[7] = human CD4+ TEM cells, CD3/CD28 bead stimulation, read-out: PKC-theta IL2 pIC50 (converted)
[8] = Homo sapiens, read-out: PKC-theta IL2 pIC50 (binned) (converted)
[9] = Homo sapiens, read-out: PKC-theta IL2 pIC50 (converted)

Chain of Recombinant human PKC-delta (His-tagged 345-676) (Q05655 345-676): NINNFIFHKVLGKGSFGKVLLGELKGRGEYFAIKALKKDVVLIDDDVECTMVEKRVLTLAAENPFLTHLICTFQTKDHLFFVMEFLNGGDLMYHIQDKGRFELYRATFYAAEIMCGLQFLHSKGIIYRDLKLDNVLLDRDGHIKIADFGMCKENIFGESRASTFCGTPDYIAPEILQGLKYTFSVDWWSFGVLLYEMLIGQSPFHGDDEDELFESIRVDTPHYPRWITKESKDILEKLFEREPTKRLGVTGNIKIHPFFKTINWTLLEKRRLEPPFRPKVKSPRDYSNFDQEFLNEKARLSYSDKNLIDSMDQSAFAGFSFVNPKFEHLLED
Chain of Recombinant human PKC-theta (His-tagged 362-706) (Q04759 362-706): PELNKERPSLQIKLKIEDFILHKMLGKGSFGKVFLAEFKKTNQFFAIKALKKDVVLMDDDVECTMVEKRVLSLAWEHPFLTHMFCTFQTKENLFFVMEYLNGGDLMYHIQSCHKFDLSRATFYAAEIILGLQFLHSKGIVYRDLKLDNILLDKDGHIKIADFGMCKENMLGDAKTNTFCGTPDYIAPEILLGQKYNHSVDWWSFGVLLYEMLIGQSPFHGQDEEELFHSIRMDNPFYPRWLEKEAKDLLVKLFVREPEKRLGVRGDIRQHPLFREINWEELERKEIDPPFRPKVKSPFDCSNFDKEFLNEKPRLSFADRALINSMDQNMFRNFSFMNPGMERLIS

Structure (SMILES) | IC50 [1, 4] [nM] | IC50 [1, 5] [nM] | IC50 [2, 6] [nM] | IC50 [2, 7] [nM] | PKC-theta/PKC-delta selectivity [3] | PKC-theta/PKC-delta selectivity (binned) [3] | PKC-theta HTRF pIC50 [1] | IC50 [2, 8] [nM] | IC50 [2, 9] [nM]
CC[C@]1(C)C(=O)Nc2nccc(-c3nn([C@H]4CCNC[C@H]4F)c4ccc(F)cc34)c21 (single isomer, unassigned) [Example 100] | 3.16 to 10 | 7.94 | 31.6 to 100 | 100 | 29 | C (C means a ratio of between 20 and 30) |  |  | 
CC[C@]1(C)C(=O)Nc2nccc(-c3nn([C@@H]4CCNC[C@@H]4F)c4cc(F)ccc34)c21 (single isomer, unassigned) [Example 101] | 10 to 31.6 | 25.1 | 316 to 1000 | 631 | 42 | B (B means a ratio of between 30 and 50) |  |  | 
CC[C@@]1(C)C(=O)Nc2nccc(-c3nn([C@@H]4CCNC[C@@H]4F)c4cc(F)ccc34)c21 (single isomer, unassigned) [Example 103] | 1 to 3.16 | 2.51 | 31.6 to 100 | 63.1 | 22 | C (C means a ratio of between 20 and 30) |  |  | 
CC[C@@]1(C)C(=O)Nc2nccc(-c3nn([C@H]4CCNC[C@H]4F)c4cc(F)ccc34)c21 (single isomer, unassigned) [Example 104] | ≤ 1 | 0.794 | 10 to 31.6 | 12.6 | 17 | D (D means a ratio of between 10 and 20) |  |  | 
CC[C@@]1(C)C(=O)Nc2nccc(-c3nn([C@@H]4CCNC[C@@H]4F)c4ccccc34)c21 (single isomer, unassigned) [Example 105] | 10 to 31.6 | 12.6 | 316 to 1000 | 398 | 33 | B (B means a ratio of between 30 and 50) |  |  | 
CC[C@]1(C)C(=O)Nc2nccc(-c3nn([C@@H]4CCNC[C@@H]4F)c4ccccc34)c21 (single isomer, unassigned) [Example 106] | ≤ 1 | 0.794 | 10 to 31.6 | 12.6 | 15 | D (D means a ratio of between 10 and 20) |  |  | 
CC[C@@]1(C)C(=O)Nc2nccc(-c3nn([C@H]4CCNC[C@H]4F)c4ccccc34)c21 (single isomer, unassigned) [Example 107] | 10 to 31.6 | 20 | 316 to 1000 | 631 | 23 | C (C means a ratio of between 20 and 30) |  |  | 
CC[C@]1(C)C(=O)Nc2nccc(-c3nn([C@H]4CCNC[C@H]4F)c4ccccc34)c21 (single isomer, unassigned) [Example 108] | 1 to 3.16 | 3.16 | 31.6 to 100 | 50.1 | 17 | D (D means a ratio of between 10 and 20) |  |  | 
O=c1[nH]c2nccc(-c3cnn(C4CCNCC4)c3)c2[nH]1 [Example 1] | 316 to 1000 |  | > 1000 | 3160 | 1 | G (G means a ratio of between 0 and 1) | 6.1 |  | 
Cc1nn(C2CCNCC2)cc1-c1ccnc2[nH]c(=O)[nH]c12 [Example 2] | > 1000 |  | > 1000 | 10000 | 0.2 | G (G means a ratio of between 0 and 1) | 5.1 |  | 
O=c1[nH]c2nccc(-c3ccn(C4CCNCC4)c3)c2[nH]1 [Example 3, 7-[1-(4-piperidyl)pyrrol-3-yl]-1,3-dihydroimidazo[4,5-b]pyridin-2-one; Dihydrochloride] | 100 to 316 |  |  |  | 1 | F (F means a ratio of between 1 and 5) | 6.7 | > 1000 | 6310
COCc1cc(-c2ccnc3[nH]c(=O)[nH]c23)cn1C1CCNCC1 [Example 4] | > 1000 |  | > 1000 | 3980 | 2 | F (F means a ratio of between 1 and 5) | 6.0 |  | 
CC1C(=O)Nc2nccc(-c3ccn(C4CCNCC4)c3)c21 (stereo not drawn) [Example 5] | 31.6 to 100 |  | 100 to 316 | 126 | 1 | F (F means a ratio of between 1 and 5) | 7.1 |  | 
CC1(C)C(=O)Nc2nccc(-c3ccn(C4CCNCC4)c3)c21 [Example 6] | 31.6 to 100 |  | 316 to 1000 | 631 | 3 | F (F means a ratio of between 1 and 5) | 7.4 |  | 
CC1(C)C(=O)Nc2nccc(-c3cn(C4CCNCC4)c4ccccc34)c21 [Example 7, 3,3-dimethyl-4-[1-(4-piperidyl)indol-3-yl]-1H-pyrrolo[2,3-b]pyridin-2-one Dihydrochloride] | 31.6 to 100 |  |  |  | 6 | E (E means a ratio of between 5 and 10) | 7.4 | 316 to 1000 | 501
CC1(C)C(=O)Nc2nccc(-c3ccn(C4CCNCC4)n3)c21 [Example 8, 3,3-dimethyl-4-[1-(4-piperidyl)pyrazol-3-yl]-1H-pyrrolo[2,3-b]pyridin-2-one Dihydrochloride] | 3.16 to 10 |  |  |  | 5 | E (E means a ratio of between 5 and 10) | 8.1 | 100 to 316 | 126
CC1(C)C(=O)Nc2nccc(-c3nn(C4CCNCC4)c4ccccc34)c21 [Example 9] | 1 to 3.16 |  | 31.6 to 100 | 39.8 | 15 | D (D means a ratio of between 10 and 20) | 8.7 |  | 
CC1(C)C(=O)Nc2nccc(-c3cn(C4CCNC4)c4ccccc34)c21 (stereo not drawn) [Example 10] | 31.6 to 100 |  | 316 to 1000 | 631 | 12 | D (D means a ratio of between 10 and 20) | 7.4 |  | 
CC1(O)C(=O)Nc2nccc(-c3ccn(C4CCNCC4)c3)c21 (stereo not drawn) [Example 11] | 31.6 to 100 |  | > 1000 | 1580 | 4 | F (F means a ratio of between 1 and 5) | 7.2 |  | 
CC1(O)C(=O)Nc2nccc(-c3cn(C4CCNCC4)c4ccccc34)c21 (stereo not drawn) [Example 12] | 3.16 to 10 |  | 100 to 316 | 200 | 11 | D (D means a ratio of between 10 and 20) | 8.1 |  | 
CC1(O)C(=O)Nc2nccc(-c3ccn(C4CCNCC4)n3)c21 (stereo not drawn) [Example 13] | 31.6 to 100 |  | 316 to 1000 | 631 | 4 | F (F means a ratio of between 1 and 5) | 7.4 |  | 
